Here are results for four compounds from paper PMC5585349, “Biosynthesis of the nosiheptide indole side ring centers on a cryptic carrier protein NosJ” (Nature Communications, 2017).

One assay addresses NosI (Streptomyces actuosus, UniProt C6FX48). Nature of the assay: LC-HR-MS detection of MIA-AMP ([…]). The class given is biochemical.
A further assay addresses T1, NosK (Streptomyces actuosus, UniProt C6FX50).
T1 construct: expressed in E. coli, purified
Put plainly: thioester hydrolysis, HPLC UV […] nm. It is filed as biochemical. As to conditions: CoA thioester hydrolysed.

T1 sequence (C6FX50 entry or part of it): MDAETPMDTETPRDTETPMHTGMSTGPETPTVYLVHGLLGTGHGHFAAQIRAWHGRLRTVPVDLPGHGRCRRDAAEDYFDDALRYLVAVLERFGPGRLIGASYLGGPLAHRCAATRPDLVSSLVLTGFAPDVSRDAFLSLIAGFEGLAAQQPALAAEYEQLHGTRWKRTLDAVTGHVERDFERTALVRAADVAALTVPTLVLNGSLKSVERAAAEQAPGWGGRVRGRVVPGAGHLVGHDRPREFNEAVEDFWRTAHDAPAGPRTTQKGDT
NosI, sequence (C6FX48 entry or part of it): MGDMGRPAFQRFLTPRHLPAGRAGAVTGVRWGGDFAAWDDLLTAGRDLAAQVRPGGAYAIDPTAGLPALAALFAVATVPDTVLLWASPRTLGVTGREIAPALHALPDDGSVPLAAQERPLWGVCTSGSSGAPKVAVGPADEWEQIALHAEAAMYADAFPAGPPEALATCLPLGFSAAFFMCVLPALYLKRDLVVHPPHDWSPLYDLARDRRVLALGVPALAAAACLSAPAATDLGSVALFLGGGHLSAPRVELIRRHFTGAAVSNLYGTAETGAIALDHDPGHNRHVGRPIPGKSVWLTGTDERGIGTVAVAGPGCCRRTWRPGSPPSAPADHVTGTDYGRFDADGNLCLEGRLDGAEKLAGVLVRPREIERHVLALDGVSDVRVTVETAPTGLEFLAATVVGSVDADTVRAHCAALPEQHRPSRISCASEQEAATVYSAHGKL

As for `Nc1ncnc2c1ncn2[C@@H]1O[C@H](COP(=O)(O)OP(=O)(O)OP(=O)(O)O)[C@@H](O)[C@H]1O` [ATP], the “LC-HR-MS detection of MIA-AMP (4)” value at NosI (MIA co-substrate) was “LC-HR-MS analysis of the reaction mixture containing NosI, MIA and ATP clearly showed the production”.
As for `Cc1cccc2[nH]c(C(=O)SCCNC(=O)CCNC(=O)[C@H](O)C(C)(C)COP(=O)(O)OP(=O)(O)OC[C@H]3O[C@@H](n4cnc5c(N)ncnc54)[C@H](O)[C@@H]3OP(=O)(O)O)c(C)c12` [DMIA-CoA], the “thioester hydrolysis, HPLC UV 300 nm” value on NosK is “NosK also hydrolyzes the CoA-bound MIA and DMIA thioesters with comparative efficiencies”.
With `Cc1c(C(=O)SCCNC(=O)CCNC(=O)[C@H](O)C(C)(C)COP(=O)(O)OP(=O)(O)OC[C@H]2O[C@@H](n3cnc4c(N)ncnc43)[C@H](O)[C@@H]2OP(=O)(O)O)[nH]c2ccccc12` [MIA-CoA], the “thioester hydrolysis, HPLC UV 300 nm” value on NosK was “NosK also hydrolyzes the CoA-bound MIA and DMIA thioesters with comparative efficiencies”.
On to `Cc1c(C(=O)O)[nH]c2ccccc12` [compound 3, 3-methyl-2-indolic acid], for which the “LC-HR-MS detection of MIA-AMP (4)” value on NosI (ATP co-substrate, MIA adenylated, then transferred to pantetheine or holo-NosJ) is “LC-HR-MS analysis of the reaction mixture containing NosI, MIA and ATP clearly showed the production”.
